One assay deals with Klebsiella aerogenes. Briefly: Antibacterial activity against Klebsiella aerogenes (SHV-1) 1976E by M07-A9 CLSI method. Type of assay: functional.
A further assay has as its system Pseudomonas aeruginosa. As to the kind of experiment: Antibacterial activity against Pseudomonas aeruginosa 6065Y by M07-A9 CLSI method. Format: functional.
In another assay the test system is Proteus vulgaris. Briefly: Antibacterial activity against Proteus vulgaris 6059 by M07-A9 CLSI method. Type of assay: functional.
The test system of a further assay is Klebsiella pneumoniae. As to the kind of experiment: Antibacterial activity against Klebsiella pneumoniae 2011E by M07-A9 CLSI method. Format: functional.
Another assay concerns Salmonella typhimurium. As to the kind of experiment: Antibacterial activity against Salmonella typhimurium ATCC 13311 by M07-A9 CLSI method. To be noted: Salmonella enterica. Format: functional, Salmonella enterica subsp. enterica serovar Typhimurium.
In the next assay the test system is Escherichia coli. Briefly: Antibacterial activity against Escherichia coli ATCC 25922 by M07-A9 CLSI method. Type of assay: functional.
Another assay deals with Bacillus licheniformis. Briefly: Antibacterial activity against Bacillus licheniformis EMR by M07-A9 CLSI method. Format: functional.
The test system of another assay is Bacillus cereus. Briefly: Antibacterial activity against Bacillus cereus ATCC 27348 by M07-A9 CLSI method. Type of assay: functional.
The next assay has as its system Bacillus subtilis. As to the kind of experiment: Antibacterial activity against Bacillus subtilis ATCC 6633 by M07-A9 CLSI method. Format: functional.
For a further assay, the system named is Enterococcus faecalis. As to the kind of experiment: Antibacterial activity against Enterococcus faecalis ATCC 29212 by M07-A9 CLSI method. Type of assay: functional.
For the next assay, the system named is Kocuria rhizophila. As to the kind of experiment: Antibacterial activity against Micrococcus luteus ATCC 9341 by M07-A9 CLSI method. Type of assay: functional.
In assay [1] the test system is Staphylococcus epidermidis. Briefly: Antibacterial activity against Staphylococcus epidermidis 887E by M07-A9 CLSI method. Type of assay: functional.
Assay [2] relates to Staphylococcus aureus. As to the kind of experiment: Antibacterial activity against Staphylococcus aureus 241 by M07-A9 CLSI method. Format: functional.
The test system of assay [3] is Staphylococcus aureus. Briefly: Antibacterial activity against Staphylococcus aureus 77 by M07-A9 CLSI method. Type of assay: functional.
Assay [4] deals with Staphylococcus aureus. As to the kind of experiment: Antibacterial activity against Staphylococcus aureus Giorgio by M07-A9 CLSI method. Type of assay: functional.
The test system of assay [5] is Staphylococcus aureus. Briefly: Antibacterial activity against Staphylococcus aureus ATCC 25923 by M07-A9 CLSI method. Type of assay: functional.
The subject of assay [6] is Staphylococcus aureus. As to the kind of experiment: Antibacterial activity against Staphylococcus aureus ATCC 6538P by M07-A9 CLSI method. Type of assay: functional.

MIC data for four molecules are collected here from ChEMBL document CHEMBL2407054, “Synthesis and antimicrobial activity of imidazole and pyridine appended cholestane-based conjugates” (2013).

Structures are written as SMILES. Converted amounts (≈) assume the structure as drawn.

For `CC(C)CCC[C@@H](C)[C@H]1CC[C@H]2[C@@H]3C(=O)C[C@H]4C[C@H](NCCn5ccnc5)CC[C@]4(C)[C@H]3CC[C@]12C`, the MIC in the assay on Klebsiella aerogenes, in the assay on Pseudomonas aeruginosa, against Proteus vulgaris, in the assay with Klebsiella pneumoniae, against Salmonella typhimurium and in the assay on Escherichia coli was greater than 32 µg/mL in each case. For the same molecule, the MIC against Bacillus licheniformis was determined as 32 µg/mL (≈ 64.5 µM); against Bacillus cereus, 32 µg/mL (≈ 64.5 µM); in the assay with Bacillus subtilis, 32 µg/mL (≈ 64.5 µM); in the assay on Enterococcus faecalis, 8 µg/mL (≈ 16.1 µM); with Kocuria rhizophila, 8 µg/mL (≈ 16.1 µM); in assay [1] it was 16 µg/mL (≈ 32.3 µM). For the same molecule, the MIC against Staphylococcus aureus [2] is 16 µg/mL (≈ 32.3 µM); with Staphylococcus aureus [3], greater than 32 µg/mL; in the assay on Staphylococcus aureus [4], 8 µg/mL (≈ 16.1 µM); in the assay with Staphylococcus aureus [5], 8 µg/mL (≈ 16.1 µM); against Staphylococcus aureus [6] it was 8 µg/mL (≈ 16.1 µM).
Take `CC(C)CCC[C@@H](C)[C@H]1CC[C@H]2[C@@H]3C(=O)C[C@H]4C[C@H](NCCCn5ccnc5)CC[C@]4(C)[C@H]3CC[C@]12C`: the MIC in the assay with Klebsiella aerogenes, in the assay on Pseudomonas aeruginosa, in the assay with Proteus vulgaris, against Klebsiella pneumoniae, against Salmonella typhimurium and with Escherichia coli was greater than 32 µg/mL in each case. Further, the minimum inhibitory concentration (MIC) worked out at 32 µg/mL (≈ 62.8 µM) in the assay on Bacillus licheniformis; 16 µg/mL (≈ 31.4 µM) against Bacillus cereus; 8 µg/mL (≈ 15.7 µM) against Bacillus subtilis; 32 µg/mL (≈ 62.8 µM) with Enterococcus faecalis; 8 µg/mL (≈ 15.7 µM) in the assay on Kocuria rhizophila; 16 µg/mL (≈ 31.4 µM) in assay [1]. Besides, the MIC in the assay on Staphylococcus aureus [2] is 32 µg/mL (≈ 62.8 µM); against Staphylococcus aureus [3] it was 8 µg/mL (≈ 15.7 µM); against Staphylococcus aureus [4], 8 µg/mL (≈ 15.7 µM); with Staphylococcus aureus [5], 8 µg/mL (≈ 15.7 µM); against Staphylococcus aureus [6], 8 µg/mL (≈ 15.7 µM).
Consider `CC(C)CCC[C@@H](C)[C@H]1CC[C@H]2[C@@H]3C(=O)C[C@H]4C[C@H](NCc5ccccn5)CC[C@]4(C)[C@H]3CC[C@]12C`, for which the MIC against Klebsiella aerogenes, with Pseudomonas aeruginosa, against Proteus vulgaris, with Klebsiella pneumoniae, in the assay with Salmonella typhimurium and in the assay with Escherichia coli was greater than 32 µg/mL each time. Besides, the minimal inhibitory concentration (MIC) in the assay with Bacillus licheniformis turned out to be 32 µg/mL (≈ 64.9 µM); with Bacillus cereus, 16 µg/mL (≈ 32.5 µM); with Bacillus subtilis, 4 µg/mL (≈ 8.12 µM); in the assay on Enterococcus faecalis it was 8 µg/mL (≈ 16.2 µM); with Kocuria rhizophila, 8 µg/mL (≈ 16.2 µM); in assay [1] it was 4 µg/mL (≈ 8.12 µM). The MIC against Staphylococcus aureus [2] was 32 µg/mL (≈ 64.9 µM); in the assay on Staphylococcus aureus [3], 32 µg/mL (≈ 64.9 µM); against Staphylococcus aureus [4] it was 4 µg/mL (≈ 8.12 µM); with Staphylococcus aureus [5] it was 4 µg/mL (≈ 8.12 µM); against Staphylococcus aureus [6], 2 µg/mL (≈ 4.06 µM).
For the molecule `Cc1onc(-c2ccccc2)c1C(=O)N[C@@H]1C(=O)N2[C@@H]1SC(C)(C)[C@@H]2C(=O)O` [OXACILLIN], the MIC against Klebsiella aerogenes, in the assay with Pseudomonas aeruginosa, against Proteus vulgaris, in the assay on Klebsiella pneumoniae, against Salmonella typhimurium and in the assay on Escherichia coli was greater than 32 µg/mL throughout. In addition, the MIC is greater than 32 µg/mL with Bacillus licheniformis; greater than 32 µg/mL with Bacillus cereus; 16 µg/mL (≈ 39.9 µM) with Bacillus subtilis; 32 µg/mL (≈ 79.7 µM) in the assay with Enterococcus faecalis; 0.03 µg/mL (≈ 0.0747 µM) against Kocuria rhizophila; greater than 32 µg/mL in [1]. Further, the MIC in the assay on Staphylococcus aureus [2] is greater than 32 µg/mL; against Staphylococcus aureus [3] it was 4 µg/mL (≈ 9.96 µM); against Staphylococcus aureus [4] it was 0.5 µg/mL (≈ 1.25 µM); with Staphylococcus aureus [5], 0.25 µg/mL (≈ 0.623 µM); in the assay on Staphylococcus aureus [6] it was 0.25 µg/mL (≈ 0.623 µM).

For orientation: MIC means the lowest concentration that inhibits growth of the organism.
